Experimental data from patent US20240239801A1, “PYRIMIDO[5,4,D]PYRIMIDINE COMPOUNDS, COMPOSITIONS COMPRISING THEM AND USES THEREOF” (Université de Montréal, priority 2021, published 2024).
Like-named read-outs stand apart in the source and are kept apart here.

Experiments:
Format in all cases: cell-based, human
SW480 = test: Proliferation inhibition, CellTiter-Glo; details: Table D-2, 3 days, read-out: SW480 Prolif. EC50
Procedure: (§1) All cancer cell lines (A375, A101D, A2058, RKO, HT29 SK-MEL 30, IPC298, HepG2, HCT-116, Lovo, SW620, SW480, NCI-H358, NCI-H2122, Calu-6, NCIH2087, NCIH1755, NCIH1666 and Mewo) were obtained from ATCC and cultured in RPMI-1640 medium (Gibco) supplemented with 5% heat inactivated fetal bovine serum (FBS, Wisent) at 37° C. under 5% CO2. Cells were maintained in T175 flasks (Greiner). They were passaged by removing the culture medium, washing once in 10 mL of room temperature Phosphate Buffered Saline (PBS; Wisent) and incubating at 37° C. with 2 mL of 0.05% Trypsin (Thermo-Fisher). Trypsin was then inactivated by adding complete growth medium and the cells were then replated in a T175 culture dish at the appropriate dilution. All cell lines were routinely tested for mycoplasma contamination. Tissue type and mutational status of each cell line can be found in Table B.
(§2) CellTiter-Glo® viability analysis was conducted on cells plated in […] of complete RPMI-1640 growth medium in 96-well flat-bottomed white opaque plates (Greiner or Corning) at a density indicated in Table E (for each CCL, number of cells plated per well of a 96-well plate to perform the CellTiter-Glo® cell viability assay). The cell density in cells/cm^2 would correspond to cell number divided by the area of one well of a 96-well plate (0.32 cm^2). Cells were maintained overnight at 37° C. under 5% CO2 before treatment with compounds' dilution series for 3 days.
(§3) In a dilution series 100 μL/well of test substance dilution prepared in complete RPMI-1640 growth media was added to the cells plated initially in 100 μL of growth media. The dilution series is selected so that ten concentrations cover a range from 30 μM or 10 μM to […]. If necessary (as in the case of A375 cells, which were more sensitive to the compounds) the initial concentration of 10 μM is lowered to 1 μM and further dilution is carried out accordingly. The final concentration of DMSO in the assay is set to 0.5%.
(§4) After 3 days of incubation, the growth media were removed by aspiration and 60 μL of diluted CellTiter-Glo® reagent (10 μL CellTiter-Glo® reagent+50 μL of PBS) was added to each well. Cells were allowed to lyse and to equilibrate in CellTiter-Glo® reagent by 5 min incubation on a plate shaker followed by 10 min incubation at room temperature. Luminescence signals were then acquired on a Synergy Neo2 plate reader (Biotek).
(§5) The effect of each compound dilution on the proliferation of cancer cell lines was expressed in % inhibition and calculated as follows. An internal 100% inhibition control (1 μM of trametinib; cat. No. HY-10999; MedChem Express; CAS No. 871700-17-3) was included in each plate and used as a measure of CellTiter-Glo® signal background. The value obtained for trametinib was subtracted from each data point. The average of DMSO (vehicle) controls (set as 0% inhibition) was established and used to calculate % inhibition:
(§6) The ability of each compound to inhibit proliferation was expressed as a EC50 value obtained by plotting the effect values for each data point of a dilution series and fitting the obtained curves using a log(agonist) versus response−variable slope (four parameters) function using GraphPadPrism (V7.0) or Dotmatics Screening Ultra platform.

A375 = test: Proliferation inhibition, CellTiter-Glo; details: Table D-1, 3 days, read-out: A375 Prolif. EC50
Procedure: as §1, §2, §3, §4, §5, §6

A101D = test: Proliferation inhibition, CellTiter-Glo; details: Table D-1, 3 days, read-out: A101D Prolif. EC50
Procedure: as §1, §2, §3, §4, §5, §6

Mewo = test: Proliferation inhibition, CellTiter-Glo; details: Table D-2, 3 days, read-out: Mewo Prolif. EC50
Procedure: as §1, §2, §3, §4, §5, §6

SW480 pERK = test: Phospho-ERK inhibition, AlphaLISA SureFire Ultra p-ERK 1/2; details: for SW480 (Ymin %): lowest value of the pERK IC50 curve; for SW480 pERK, value in parentheses, % inhibition: % Ymin of pERK IC50 curve
Summary of the method: (§7)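 Cells plated in RPMI-1640 with 5% FBS, held overnight, then exposed 1 h to ten-point compound dilutions (top 30 or 10 μM down to 0.33 nM; 0.5% DMSO). Lysates read for p-ERK1/2 (Thr202/Tyr204) by AlphaLISA; % inhibition relative to DMSO after subtracting a 1 μM trametinib background; IC50 from four-parameter fit.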

HCT116 pERK = test: as above; details: for HCT116 (Ymin %): lowest value of the pERK IC50 curve; for HCT116 pERK, value in parentheses, % inhibition: % Ymin of pERK IC50 curve
Summary of the method: as §7

IPC298 = test: Proliferation inhibition, CellTiter-Glo; details: Table D-1, 3 days, read-out: IPC298 Prolif. EC50
Procedure: as §1, §2, §3, §4, §5, §6

[1] = Table 3, 1 h treatment, read-out: SW480 PERK IC50
[2] = Table D-2, read-out: SW480 pERK IC50
[3] = Homo sapiens, SW480, Table D-2, read-out: SW480 pERK IC50
[4] = Homo sapiens, HCT-116, Table D-1

EC50 (SW480) [nM]	EC50 (A375) [nM]	IC50 (SW480 pERK; [1]) [nM]	IC50 (SW480 pERK; [2]) [nM]	IC50 (HCT116 pERK; Table 3, 1 h treatment) [nM]	IC50 (HCT116 pERK; Table D-1) [nM]	EC50 (SW480; Homo sapiens, SW480, 72 h) [nM]	EC50 (A375; Homo sapiens, A-375, 72 h) [nM]	IC50 (SW480 pERK; [3]) [nM]	IC50 (HCT116 pERK; [4]) [nM]	SMILES	EC50 (A101D) [nM]	EC50 (Mewo) [nM]	SW480 (Ymin %) (SW480 pERK; Table 3) [%]	SW480 pERK, value in parentheses, % inhibition (SW480 pERK; Table D-2)	HCT116 (Ymin %) (HCT116 pERK; Table 3)	HCT116 pERK, value in parentheses, % inhibition (HCT116 pERK; Table D-1)	EC50 (IPC298; Homo sapiens, IPC-298, 72 h) [nM]	EC50 (Mewo; Homo sapiens, MeWo, 72 h) [nM]	EC50 (IPC298) [nM]	other results
300 to 3000	< 300	< 500	30 to 300	500 to 1000	> 300	–	–	–	–	COc1ccc(S(=O)(=O)Nc2ccc(F)c(Nc3ncnc4cnc(-n5cnc6c(N)cccc65)nc34)c2F)c(C)c1Cl [Example 112]	< 300	300 to 3000	−7	(−7) %	−0.8%	(−0.8) %	–	–	–	–
–	–	–	–	–	–	> 3000	< 300	30 to 300	> 300	Cc1c(F)cccc1S(=O)(=O)Nc1ccc(F)c(Nc2ncnc3cnc(-n4cnc5c(-c6cccnc6)cccc54)nc23)c1F [Example 114]	–	–	2	(1) %	–	(−4.9) %	< 300	300 to 3000	–	EC50 (A101D; Homo sapiens, A101D, 72 h): < 300 nM; IC50 (SW480 pERK; Homo sapiens, SW480, Table 3, 1 h treatment, read-out: SW480 PERK IC50): < 500 nM; IC50 (HCT116 pERK; Homo sapiens, HCT-116, Table 3, 1 h treatment): < 500 nM
–	–	< 500	–	< 500	–	–	–	–	–	Nc1cccc2c1ncn2-c1ncc2ncnc(Nc3c(F)ccc(NS(=O)(=O)c4cccc(Cl)c4Cl)c3F)c2n1 [Example 80]	–	–	−2	–	−7%	–	–	–	–	–
300 to 3000	< 300	< 500	30 to 300	< 500	30 to 300	–	–	–	–	O=S(=O)(Nc1ccc(F)c(Nc2ncnc3cnc(-n4cnc5c(N6CCC7(CCCO7)CC6)cccc54)nc23)c1F)c1cccc(Cl)c1Cl [Example 129]	< 300	< 300	3	(3) %	−8%	(−8) %	–	–	< 300	–

The remaining lines, values behind:

SMILES	EC50 (SW480) [nM]	EC50 (A375) [nM]	IC50 (SW480 pERK; [1]) [nM]	IC50 (SW480 pERK; [2]) [nM]	IC50 (HCT116 pERK; Table 3, 1 h treatment) [nM]	IC50 (HCT116 pERK; Table D-1) [nM]	EC50 (SW480; Homo sapiens, SW480, 72 h) [nM]	EC50 (A375; Homo sapiens, A-375, 72 h) [nM]	IC50 (SW480 pERK; [3]) [nM]	IC50 (HCT116 pERK; [4]) [nM]	EC50 (A101D) [nM]	EC50 (Mewo) [nM]	SW480 (Ymin %) (SW480 pERK; Table 3) [%]	SW480 pERK, value in parentheses, % inhibition (SW480 pERK; Table D-2)	HCT116 (Ymin %) (HCT116 pERK; Table 3)	HCT116 pERK, value in parentheses, % inhibition (HCT116 pERK; Table D-1)	EC50 (IPC298; Homo sapiens, IPC-298, 72 h) [nM]	EC50 (Mewo; Homo sapiens, MeWo, 72 h) [nM]	EC50 (IPC298) [nM]	other results
Cc1ccc2c(Nc3cccc(Cl)c3F)nccc2c1NC(=O)c1csc2c(N)ncnc12 [Belvarafenib, reference compound]	–	–	–	–	–	–	300 to 3000	< 300	30 to 300	30 to 300	–	–	–	(−100) %	–	(−46) %	< 300	300 to 3000	–	–
Cc1c(F)cccc1S(=O)(=O)Nc1ccc(F)c(Nc2ncnc3cnc(-n4cc(C(=O)N(C)Cc5ccncc5)c5ccccc54)nc23)c1F [Example 98]	300 to 3000	< 300	< 500	30 to 300	–	30 to 300	–	–	–	–	< 300	< 300	−1	(−1) %	(−6.0) %	(−6.0) %	–	–	< 300	–
